assay: gradient 5% acetonitrile 3 min, to 50% in 2 min, to 85% in 15 min, held 3 min, 100 µL/min; details: column: Zorbax Extend-C18 2.1 x 50 mm; eluents: water / acetonitrile, 0.1% formic acid
Outline: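 Data were gathered over 3 months by HPLC coupled to a quadrupole time-of-flight mass spectrometer, operated in positive and negative ionization mode. Mixtures of ~100 pure standards ran on a Zorbax Extend-C18 column (2.1 × 50 mm, 1.8 μm) at 100 μL/min, with water and acetonitrile each containing 0.1% formic acid and dead and dwell volumes of 40 μL and 900 μL. Retention time was read from adduct peaks picked by computer and checked manually.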

In order of falling RP-LC retention time:
1. O=C(Nc1cccc(Cl)c1)c1c(O)c2cccnc2n(-c2cccc(F)c2)c1=O  1360 s
2. CCc1ccc(-c2csc(Cc3nc(-c4ccc5c(c4)OCO5)no3)n2)cc1  1300 s
3. COc1ccc(-c2noc(-c3ccc(NC(=O)COc4ccc(Br)cc4)cc3)n2)cc1  1280 s
4. CCn1nccc1-c1cccc(-c2noc(-c3ccc(Br)o3)n2)c1  1180 s
5. CCOc1ccccc1NC(=O)c1sc(N2CCCC2=O)nc1CC  1020 s
6. COc1ccc(C(=O)Nc2nccnc2C(=O)NCc2ccc(Br)cc2)cc1  1010 s
7. O=C(NCC(F)F)c1cc2c(s1)N(CC1CC1)CCCC2  1000 s
8. Cc1ccc(CNC(=O)C2(C)CN(S(C)(=O)=O)CC(=O)N2Cc2ccc(Cl)cc2)cc1 (stereo not drawn)  906 s
9. O=C(Cn1cccc(-c2nc(-c3ccccc3)no2)c1=O)Nc1ccc(F)cc1F  864 s
10. O=C(c1cccc2c1CCN2C(=O)c1ccc(F)cc1)N1CCCCC1  854 s
11. Cc1noc(-c2ccc(=O)n(Cc3ccccc3C)n2)n1  851 s
12. Cc1ccc(NS(=O)(=O)c2cc3c(s2)CCN(C(=O)C2CC2)C3)cc1  849 s
13. Cc1nc2nc(-c3ccccc3)nn2c(C)c1CC(=O)N(C)Cc1ccccc1  842 s
14. COc1ccc(C)cc1NC(=O)N1CCC2(CC1)NC(=O)c1ccccc1N2C  807 s
15. COc1ccc(-n2c(=O)n(C)c(=O)c3cc(C(=O)Nc4ccccc4C(N)=O)cnc32)cc1  787 s
16. CCC(=O)c1ccc2c(c1)N(CCCN(C)C)c1ccccc1S2  772 s
17. Cc1ccc(N2CCC(NC(=O)C3CCCC3)C2=O)cc1 (stereo not drawn)  762 s
18. CCc1ccc(-n2nnc(C(=O)NCCOC)c2-c2ccncc2)cc1  725 s
19. CC1=C(C(=O)N2CCOCC2)C(c2cc(Br)ccc2F)C2=C(CC(C)(C)CC2=O)N1 (stereo not drawn)  715 s
20. CCOC(=O)C1CCN(C(=O)C2CN(C(=O)c3ccc(F)c(F)c3)C2)CC1  696 s
21. COc1ccc(NC(=O)Cn2nc3n(c2=O)CCCCC3)cc1Cl  692 s
22. O=C(CCc1ccccc1)Nc1cnc(-c2cccnc2)nc1  690 s
23. O=C(Cn1c(-c2cccs2)cc2cc(F)ccc21)NCCN1CCOCC1  680 s
24. O=C(Nc1ccc2c(c1)OCCO2)C1CCN(c2cncnc2N2CCCCC2)CC1  673 s
25. CCCS(=O)(=O)NCC1CC(=O)N(c2ccc(F)cc2)C1 (stereo not drawn)  669 s
26. COCC(=O)N1CCCc2ccc(NC(=O)NCc3cccs3)cc21  662 s
27. COc1ccc(-c2nc3ccccn3c2NC(=O)c2cccc([N+](=O)[O-])c2)cc1  659 s
28. O=C(NCCCN1CCOCC1)c1ccc(-c2cnc(NC3CCCCC3)nc2)cc1  655 s
29. O=C(Nc1cccnc1)c1cccc(S(=O)(=O)N2CCCCCC2)c1  631 s
30. CN1C(=O)C(CC(=O)N2CCCC2)Sc2ncccc21 (stereo not drawn)  626 s
31. CCn1c(-c2ccccc2)nc2ccccc21  623 s
32. Nc1ccc2nc3ccc(=O)cc-3n(-c3ccccc3)c2c1  614 s
33. CC(C)CN1C(=O)c2cccn2CC1C(=O)NCCN(C)C1CCCCC1 (stereo not drawn)  614 s
34. CCCNC(=O)N1CCN(c2cc(-c3ccc(OC)c(OC)c3)ncn2)CC1  601 s
35. COc1ccc(CN2CC[C@@H]3CN(S(C)(=O)=O)[C@@H]3C2)c(OC)c1  580 s
36. Cc1nccn1CC(=O)N1CCC(OCc2nc(C3CC3)no2)CC1  577 s
37. CCOCCCNC(=O)CCCN1C(=O)CCn2nc(C)cc21  568 s
38. Cc1nnc(-c2ccncc2)o1  547 s
